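48-hour exposure; five concentrations; linearly interpolated endpoints. GI50 marks 50% less growth. TGI denotes the concentration required for complete inhibition of growth.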
How the values were obtained:
Experiment in all cases: growth of human tumour cells (NCI), 48 h
SF-539 CNS = tested on: SF-539 CNS
MDA-MB-435 = tested on: MDA-MB-435
OVCAR-4 ovarian = tested on: OVCAR-4 ovarian
OVCAR-8 ovarian = tested on: OVCAR-8 ovarian
HCT-116 colon = tested on: HCT-116 colon
SK-MEL-2 melanoma = tested on: SK-MEL-2 melanoma
A549 NSCLC = tested on: A549 NSCLC
CAKI-1 renal = tested on: CAKI-1 renal
ACHN renal = tested on: ACHN renal
SNB-19 CNS = tested on: SNB-19 CNS
SF-295 CNS = tested on: SF-295 CNS
NCI-H522 lung = tested on: NCI-H522 lung

SMILES	TGI (SF-539 CNS) [µM]	TGI (MDA-MB-435) [µM]	TGI (OVCAR-4 ovarian) [µM]	TGI (OVCAR-8 ovarian) [µM]	TGI (HCT-116 colon) [µM]	TGI (SK-MEL-2 melanoma) [µM]	TGI (A549 NSCLC) [µM]	TGI (CAKI-1 renal) [µM]	TGI (ACHN renal) [µM]	TGI (SNB-19 CNS) [µM]	TGI (SF-295 CNS) [µM]	TGI (NCI-H522 lung) [µM]	GI50 (MDA-MB-435) [µM]	GI50 (OVCAR-4 ovarian) [µM]	GI50 (OVCAR-8 ovarian) [µM]	GI50 (SK-MEL-2 melanoma) [µM]	GI50 (A549 NSCLC) [µM]	GI50 (CAKI-1 renal) [µM]	GI50 (SF-295 CNS) [µM]	GI50 (NCI-H522 lung) [µM]
COc1ccc2c(O)c1-c1c(OC)ccc(c1O)SSc1ccc(OC)c(c1O)-c1c(OC)ccc(c1O)SS2	69.1	> 100	69.8	> 100	> 100	> 100	> 100	> 100	18.5	> 100	> 100	15.5								
CCCCCCCCCCCCCCCCCCN(C)CC(COC)OP(=O)([O-])OCC[N+](C)(C)C (stereo unspecified)	13	17.4	9.75	14.2	11.8	30.2	7.69	5.27	15.6	2.5	4.71	4.22								
[O-]c1c2c(nn1-c1ccc(F)cc1)c1ccccc1c[n+]2Cc1ccccc1	8.57		66.2	61.9	32.9	9.23	73.1	94.7	28	> 100	40.4	21.3								
CC(C)=CCC/C(C)=C/Cc1c2c(c3oc(-c4ccc(O)c(O)c4)c(O)c(=O)c3c1O)C=CC(C)(C)O2	7	12.6	9.5	7.92	8.56	13.7	12.4	5.55	7.83	12.5	13.4	2.9								
Cc1ccc(C(=O)NC2C(=O)NC(C(C)C)C(=O)N3CCCC3C(=O)N(C)CC(=O)N(C)C(C(C)C)C(=O)OC2C)c2c1Oc1c(c(C(=O)NC3C(=O)NC(C(C)C)C(=O)N4CCCC4C(=O)N(C)CC(=O)N(C)C(C(C)C)C(=O)OC3C)c3nc(-c4ccccc4)c(=O)oc3c1C)N2 (stereo unspecified)	0.00264	0.0193		0.0273		0.00278	> 100	> 100	0.801	21.4	0.12	0.0342								
O=C(c1ccccc1)c1ccc(N2C(=O)/C(=C/c3ccccc3S)N=C2c2ccccc2)c(N2C(=O)/C(=C/c3ccccc3S)N=C2c2ccccc2)c1	40.3	46.1	> 100	88.6	> 100	57.3	> 100	> 100	> 100	> 100	> 100									
Cc1csc2nc(-c3cc([N+](=O)[O-])c(Cl)cc3Cl)c(/C=N/N=C(N)N)n12	35.1	34.7	29.8	36.1	39.5	26.1	40.9	29.8	30.9	36.5	38.8	29.4								
CCCCC(CC)C(=O)Oc1ccc(C(=O)c2ccccc2)c(O)c1 (stereo unspecified)	> 100	> 100	> 100	> 100	> 100	> 100	> 100	> 100	> 100	> 100	> 100	98.2								
C=C(C)[C@@H]1CC[C@]2(C(=O)O)CC[C@]3(C)[C@H](CC[C@@H]4[C@@]5(C)C/C(=C/c6ccco6)C(=O)C(C)(C)[C@@H]5CC[C@]43C)[C@@H]12		> 100	> 100	> 100		8.85	> 100	> 100			> 100	9.85	3.55	5.9	3.5	2.75	2.12	3.5	3.24	2.81
CC(=O)NC1C(OCc2ccccc2)OC(CO)C(O)C1OCC(=O)NC(C(=O)NC(CCC(=O)NCCCCCC(=O)Nc1ccc2c(c1)CN1C(=O)c3ccccc3C1=N2)C(N)=O)C(C)C (stereo unspecified)	37.7	> 100	53	79.5	> 100	64.8	> 100	> 100	> 100	47.7	60.8									
CCCCCCC(=O)OC[n+]1ccc(-c2c(COC(=O)NC(C)C)c(COC(=O)NC(C)C)c3n2CCC3)cc1	> 100	> 100	> 100	> 100	> 100	> 100	> 100	99.4	> 100	> 100	> 100	> 100								
